Measurements reported in patent US9808445B2, “Factor IXa inhibitors” (Merck Sharp & Dohme Corp., priority 2014, dated 2017).
pIC50: −log10 of the molar value.

Biological target: human factor IXa (Homo sapiens (Human), UniProt P00740)
Assay: Determination of inhibitory activity against factor IXa (fluorogenic substrate SPECTROFLUOR FIXa)
Type: biochemical
Settings: Factor IXa enzyme assay human
Procedure: Inhibitory activity against factor IXa was tested using the substrate SPECTROFLUOR FIXa (american diagnostica inc.; 500 West Avenue, Stamford, Conn. 06902 USA; Pr. No. 299F) and human factor IXa (american diagnostica inc.; Pr. No. 449b). Test substances were dissolved in buffer A (50 mM α,α,α-tris (hydroxymethyl) methylamine (Tris), 100 mM NaCl, 5 mM CaCl2, 15% (v/v) ethylene glycol, pH 8.0) were mixed with factor IXa (0.1 μg/ml final concentration). The enzyme reaction was started by addition of SPECTROFLUOR FIXa (100 μM final concentration). After incubation for 60 minutes at room temperature, the reaction was stopped by the addition of 20% (v/v) acetic acid solution, and then the fluorescence value was measured (Excitation Wavelength: 355 nm, Emission Wavelength; 460 nm) in a microtiter plate reader (ARVO 1420 Multilabel Counter; PerkinElmer).
The IC50 was calculated from a dilution series of the test substance with the aid of the software, Symyx Assay Explorer (Symyx Technologies, Inc.).

Chain of human factor IXa (P00740 227-461): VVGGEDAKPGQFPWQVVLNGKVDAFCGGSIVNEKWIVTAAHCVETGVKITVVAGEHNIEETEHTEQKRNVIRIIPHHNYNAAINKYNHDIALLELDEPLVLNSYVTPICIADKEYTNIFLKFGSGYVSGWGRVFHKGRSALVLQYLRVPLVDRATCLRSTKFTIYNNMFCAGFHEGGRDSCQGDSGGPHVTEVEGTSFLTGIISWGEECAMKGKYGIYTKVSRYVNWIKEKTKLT
Chain of human factor IXa (P00740 47-191 partner): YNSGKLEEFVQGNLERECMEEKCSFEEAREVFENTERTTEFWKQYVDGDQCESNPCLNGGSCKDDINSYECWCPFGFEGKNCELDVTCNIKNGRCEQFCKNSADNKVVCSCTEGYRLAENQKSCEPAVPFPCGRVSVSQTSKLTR

pIC50, ≥ 7.00:
Nc1noc2c(N3C[C@@H]4CC[C@H]3[C@@H]4NC(=O)c3ccc(-n4cnnc4)cc3Cl)cccc12 (relative stereo) [Example 1, N-((1S*,4S*, 7R*)-2-(3-Aminobenzo[d]isoxazol-7-yl)-2-azabicyclo[2.2.1]heptan-7-yl)-2-chloro-4-(4H-1,2,4-triazol-4-yl)benzamide]
Cc1ncn(-c2ccc(C(=O)N[C@@H]3[C@H]4CC[C@@H]3N(c3nccc5c(N)noc35)C4)c(Cl)c2)n1 (relative stereo) [Example 2, N-((1S*,4S*,7R*)-2-(3-Aminoisoxazolo[5,4-c]pyridin-7-yl)-2-azabicyclo[2.2.1]heptan-7-yl)-2-chloro-4-(3-methyl-1H-1,2,4-triazol-1-yl)benzamide]
Cc1cc(N2C[C@@H]3CC[C@H]2[C@@H]3NC(=O)c2c(Cl)cc(-n3cnc(C)n3)cc2Cl)c2onc(N)c2c1 (relative stereo) [Example 3, N-((1S*,4S*,7R*)-2-(3-Amino-5-methylbenzo[d]isoxazol-7-yl)-2-azabicyclo[2.2.1]heptan-7-yl)-2,6-dichloro-4-(3-methyl-1H-1,2,4-triazol-1-yl)benzamide]
Cc1ncn(-c2ccc(C(=O)N[C@@H]3[C@H]4CC[C@@H]3N(c3cc(Cl)cc5c(N)noc35)C4)c(Cl)c2)n1 (relative stereo) [Example 4, N-((1S*,4S*,7R*)-2-(3-Amino-5-chlorobenzo[d]isoxazol-7-yl)-2-azabicyclo[2.2.1]heptan-7-yl)-2-chloro-4-(3-methyl-1H-1,2,4-triazol-1-yl)benzamide]
Nc1noc2c(N3C[C@@H]4CC[C@H]3[C@@H]4NC(=O)c3ccc(-n4cnnc4)cc3Cl)ccc(Cl)c12 (relative stereo) [Example 5, N-((1S*,4S*,7R*)-2-(3-Amino-4-chlorobenzo[d]isoxazol-7-yl)-2-azabicyclo[2.2.1]heptan-7-yl)-2-chloro-4-(4H-1,2,4-triazol-4-yl)benzamide]
Nc1noc2c(N3C[C@@H]4CC[C@H]3[C@@H]4NC(=O)c3ccc(-n4cnnc4)cc3Cl)ncc(Cl)c12 (relative stereo) [Example 6, N-((1S*,4S*,7R*)-2-(3-Amino-4-chloroisoxazolo[5,4-c]pyridin-7-yl)-2-azabicyclo[2.2.1]heptan-7-yl)-2-chloro-4-(4H-1,2,4-triazol-4-yl)benzamide]
Nc1noc2c(N3C[C@@H]4CC[C@H]3[C@@H]4NC(=O)c3ccc(-c4cncnc4)cc3Cl)ncc(Cl)c12 (relative stereo) [Example 9, N-((1S*,4S*,7R*)-2-(3-Amino-4-chloroisoxazolo[5,4-c]pyridin-7-yl)-2-azabicyclo[2.2.1]heptan-7-yl)-2-chloro-4-(pyrimidin-5-yl)benzamide]
COc1ncc(-c2ccc(C(=O)N[C@@H]3[C@H]4CC[C@@H]3N(c3ncc(Cl)c5c(N)noc35)C4)c(Cl)c2)cn1 (relative stereo) [Example 10, N-((1S*,4S*,7R*)-2-(3-Amino-4-chloroisoxazolo[5,4-c]pyridin-7-yl)-2-azabicyclo[2.2.1]heptan-7-yl)-2-chloro-4-(2-methoxypyrimidin-5-yl)benzamide]
Nc1noc2c(N3C[C@@H]4CC[C@H]3[C@@H]4NC(=O)c3ccc(-c4ccnnc4)cc3Cl)ncc(Cl)c12 (relative stereo) [Example 12, N-((1S*,4S*,7R*)-2-(3-Amino-4-chloroisoxazolo[5,4-c]pyridin-7-yl)-2-azabicyclo[2.2.1]heptan-7-yl)-2-chloro-4-(pyridazin-4-yl)benzamide]
Nc1noc2c(N3C[C@@H]4CC[C@H]3[C@@H]4NC(=O)c3ccc(-n4cnnc4)cc3)ncc(Cl)c12 (relative stereo) [Example 13, N-((1S*,4S*,7R*)-2-(3-Amino-4-chloroisoxazolo[5,4-c]pyridin-7-yl)-2-azabicyclo[2.2.1]heptan-7-yl)-4-(4H-1,2,4-triazol-4-yl)benzamide]
Nc1noc2c(N3C[C@@H]4CC[C@H]3[C@@H]4NC(=O)c3ccc(-n4cnc(CCO)c4)cc3Cl)ncc(Cl)c12 (relative stereo) [Example 14, N-((1S*,4S*,7R*)-2-(3-Amino-4-chloroisoxazolo[5,4-c]pyridin-7-yl)-2-azabicyclo[2.2.1]heptan-7-yl)-2-chloro-4-(4-(2-hydroxyethyl)-1H-imidazol-1-yl)benzamide]
Cc1cc2c(N)noc2c(N2C[C@@H]3CC[C@H]2[C@@H]3NC(=O)c2ccc(-n3cc(CCO)nn3)cc2Cl)n1 (relative stereo) [Example 15, N-((1S*,4S*,7R*)-2-(3-Amino-5-methylisoxazolo[5,4-c]pyridin-7-yl)-2-azabicyclo[2.2.1]heptan-7-yl)-2-chloro-4-(4-(2-hydroxyethyl)-1H-1,2,3-triazol-1-yl)benzamide]
Nc1noc2c(N3C[C@@H]4CC[C@H]3[C@@H]4NC(=O)c3ccc(-n4cnnc4C(F)F)cc3Cl)ncc(Cl)c12 (relative stereo) [Example 16, N-((1S*,4S*,7R*)-2-(3-Amino-4-chloroisoxazolo[5,4-c]pyridin-7-yl)-2-azabicyclo[2.2.1]heptan-7-yl)-2-chloro-4-(3-(difluoromethyl)-4H-1,2,4-triazol-4-yl)benzamide]
Cc1cc2c(N)noc2c(N2C[C@@H]3CC[C@H]2[C@@H]3NC(=O)c2ccc(-c3cnc(C#N)nc3)cc2Cl)n1 (relative stereo) [Example 17, N-((1S*,4S*,7R*)-2-(3-Amino-5-methylisoxazolo[5,4-c]pyridin-7-yl)-2-azabicyclo[2.2.1]heptan-7-yl)-2-chloro-4-(2-cyanopyrimidin-5-yl)benzamide]
Cn1cc(-c2ccc(C(=O)N[C@@H]3[C@H]4CC[C@@H]3N(c3ncc(Cl)c5c(N)noc35)C4)c(Cl)c2)ccc1=O (relative stereo) [Example 18, N-((1S*,4S*,7R*)-2-(3-Amino-4-chloroisoxazolo[5,4-c]pyridin-7-yl)-2-azabicyclo[2.2.1]heptan-7-yl)-2-chloro-4-(1-methyl-6-oxo-1,6-dihydropyridin-3-yl)benzamide]
Nc1noc2c(N3C[C@@H]4CC[C@H]3[C@@H]4NC(=O)c3ccc(-c4ccc(=O)n(C(F)F)c4)cc3Cl)ncc(Cl)c12 (relative stereo) [Example 19, N-((1S*,4S*,7R*)-2-(3-Amino-4-chloroisoxazolo[5,4-c]pyridin-7-yl)-2-azabicyclo[2.2.1]heptan-7-yl)-2-chloro-4-(1-(difluoromethyl)-6-oxo-1,6-dihydropyridin-3-yl)benzamide]
Nc1noc2c(N3C[C@@H]4CC[C@H]3[C@@H]4NC(=O)c3ccc(-c4ccc5nncn5c4)cc3Cl)ncc(Cl)c12 (relative stereo) [Example 20, 4-([1,2,4]Triazolo[4,3-a]pyridin-6-yl)-N-((1S*,4S*,7R*)-2-(3-amino-4-chloroisoxazolo[5,4-c]pyridin-7-yl)-2-azabicyclo[2.2.1]heptan-7-yl)-2-chlorobenzamide]
